Data published in publication PMC6211260 (Journal of Enzyme Inhibition and Medicinal Chemistry, 2018).
Read-outs that look alike come from different tables or passages of the source.

What was measured:
Format in all cases: cell-based
[1] = test system: K-562 leukaemia cell line; test: NCI five-dose testing; settings: for IC (TGI): read-out: TGI (total growth inhibition concentration)
Protocol: (§1) Screening against the cancer cell lines was carried out at the National Cancer Institute (NCI, Bethesda, Maryland, USA) applying the standard protocol of the NCI[22].

[2] = test system: SK-MEL-5 melanoma cell line; test: NCI five-dose testing; settings: for IC (TGI): read-out: TGI (total growth inhibition concentration)
Protocol: as §1

[3] = test system: U251 CNS cancer cell line; test: NCI five-dose testing; settings: for IC50: read-out: IC50; for IC (TGI): read-out: TGI (total growth inhibition concentration)
Protocol: as §1

[4] = test system: HOP-92 non-small cell lung cancer cell line; test: NCI five-dose testing; settings: for IC (TGI): read-out: TGI (total growth inhibition concentration)
Protocol: as §1

[5] = test system: PC-3 prostate cancer cell line; test: NCI five-dose testing; settings: for IC50: read-out: IC50; for IC (TGI): read-out: TGI (total growth inhibition concentration)
Protocol: as §1

[6] = test system: HT-29 colon cancer cell line; test: NCI five-dose testing; settings: for IC50: read-out: IC50; for IC (TGI): read-out: TGI (total growth inhibition concentration)
Protocol: as §1

[7] = test system: OVCAR-4 ovarian cancer cell line; test: NCI five-dose testing; settings: for IC (TGI): read-out: TGI (total growth inhibition concentration)
Protocol: as §1

[8] = test system: A498 renal cancer cell line; test: NCI five-dose testing; settings: for IC (TGI): read-out: TGI (total growth inhibition concentration)
Protocol: as §1

[9] = test system: MDA-MB-468 breast cancer cell line; test: NCI five-dose testing; settings: for IC (TGI): read-out: TGI (total growth inhibition concentration)
Protocol: as §1

renal cancer cell lines = test: NCI five-dose testing, subpanel mean; settings: subpanel VII: renal cancer
Protocol: as §1

breast cancer cell lines = test: NCI five-dose testing, subpanel mean; settings: subpanel IX: breast cancer
Protocol: as §1

melanoma cell lines = test: NCI five-dose testing, subpanel mean; settings: subpanel V: melanoma
Protocol: as §1

[10] = test system: non-small cell lung cancer cell lines; test: NCI five-dose testing, subpanel mean; settings: subpanel II: non-small cell lung cancer
Protocol: as §1

[11] = test system: ovarian cancer cell lines; test: NCI five-dose testing, subpanel mean; settings: subpanel VI: ovarian cancer
Protocol: as §1

[12] = test system: prostate cancer cell lines; test: NCI five-dose testing, subpanel mean; settings: subpanel VIII: prostate cancer
Protocol: as §1

Leukaemia cell lines = test: NCI five-dose testing, subpanel mean; settings: subpanel I: Leukaemia
Protocol: as §1

colon cancer cell lines = test: NCI five-dose testing, subpanel mean; settings: subpanel III: colon cancer
Protocol: as §1

CNS cancer cell lines = test: NCI five-dose testing, subpanel mean; settings: subpanel IV: CNS cancer
Protocol: as §1

O=S(=O)(NCCNc1cc(-c2cn(-c3ccccc3)nc2-c2cccc(O)c2)ccn1)c1ccc(C(F)(F)F)cc1 [Compound 1o, N-(2-((4-(3-(3-Hydroxyphenyl)-1-phenyl-1H-pyrazol-4-yl)pyridin-2-yl)amino)ethyl)-4-(trifluoromethyl)benzenesulfonamide]
CC50 ([1]; Homo sapiens, K562, read-out: LD50 (lethal dose 50)): > 100 µM | IC50 ([1]; Homo sapiens, K562, K-562): 2.48 µM | IC (TGI) ([1]; Homo sapiens, K562, K-562): 6.5 µM | IC50 ([2]; Homo sapiens, SK-MEL-5): 1.78 µM | LC50 (lethal concentration 50) ([2]; Homo sapiens, SK-MEL-5, read-out: LD50 (lethal dose 50)): 6.3 µM | IC (TGI) ([2]; Homo sapiens, SK-MEL-5): 3.3 µM | CC50 ([3]; Homo sapiens, U-251, read-out: LD50 (lethal dose 50)): 44.1 µM | IC50 ([3]; Homo sapiens, U-251, U251): 2.65 µM | IC (TGI) ([3]; Homo sapiens, U-251, U251): 7.2 µM | IC50 ([4]; Homo sapiens, HOP-92): 1.97 µM | IC (TGI) ([4]; Homo sapiens, HOP-92, HOP-92): 6.2 µM | LD50 (lethal dose 50) ([4]; Homo sapiens, HOP-92, read-out: LD50 (lethal dose 50)): 52 µM | LC50 (lethal concentration 50) ([5]; Homo sapiens, PC-3, read-out: LD50 (lethal dose 50)): 93.4 µM | IC50 ([5]; Homo sapiens, PC-3): 2.47 µM | IC (TGI) ([5]; Homo sapiens, PC-3): 10.9 µM | CC50 ([6]; Homo sapiens, HT-29, read-out: LD50 (lethal dose 50)): 35.1 µM | IC50 ([6]; Homo sapiens, HT-29): 2.04 µM | IC (TGI) ([6]; Homo sapiens, HT-29): 5.4 µM | IC50 ([7]; Homo sapiens, OVCAR-4): 2.85 µM | LC50 (lethal concentration 50) ([7]; Homo sapiens, OVCAR-4, read-out: LD50 (lethal dose 50)): 81.2 µM | IC (TGI) ([7]; Homo sapiens, OVCAR-4): 16.9 µM | IC50 ([8]; Homo sapiens, A498): 1.71 µM | LC50 (lethal concentration 50%) ([8]; Homo sapiens, A498, read-out: LD50 (lethal dose 50)): 41.4 µM | IC (TGI) ([8]; Homo sapiens, A498): 14.5 µM | IC50 ([9]; Homo sapiens, MDA-MB-468): 2.05 µM | CC50 ([9]; Homo sapiens, MDA-MB-468, read-out: LD50 (lethal dose 50)): > 100 µM | IC (TGI) ([9]; Homo sapiens, MDA-MB-468): 5.02 µM | IC50 (renal cancer cell lines): 2.45 µM | IC50 (breast cancer cell lines): 2.11 µM | IC50 (melanoma cell lines): 2.37 µM | IC50 [10]: 3.03 µM | IC50 [11]: 3.12 µM | IC50 [12]: 3.45 µM | IC50 (Leukaemia cell lines): 2.34 µM | IC50 (colon cancer cell lines): 2.38 µM | IC50 (CNS cancer cell lines): 2.67 µM

COc1cccc(-c2nn(-c3ccccc3)cc2-c2ccnc(NCCNS(=O)(=O)c3ccc(Cl)cc3)c2)c1 [Compound 1c, 4-Chloro-N-(2-((4-(3-(3-methoxyphenyl)-1-phenyl-1H-pyrazol-4-yl)pyridin-2-yl)amino)ethyl) benzenesulfonamide]
IC50 ([1]; K-562): 3.73 µM | LD50 (lethal dose 50) ([1]; K-562): >100 µM | IC (TGI) ([1]; K-562): >100 µM | IC50 ([2]; SK-MEL-5): 1.95 µM | LD50 (lethal dose 50) ([2]; SK-MEL-5): 7.7 µM | IC (TGI) ([2]; SK-MEL-5): 3.8 µM | LD50 (lethal dose 50) ([3]; U251): >100 µM | IC50 ([3]; U251): 5.89 µM | IC (TGI) ([3]; U251): >100 µM | IC50 ([4]; HOP-92): 2.46 µM | LD50 (lethal dose 50) ([4]; HOP-92): >100 µM | IC (TGI) ([4]; HOP-92): 9.4 µM | LD50 (lethal dose 50) ([5]; PC-3): >100 µM | IC50 ([5]; PC-3): 2.44 µM | IC (TGI) ([5]; PC-3): >100 µM | LD50 (lethal dose 50) ([6]; HT-29): >100 µM | IC50 ([6]; HT-29): 3.37 µM | IC (TGI) ([6]; HT-29): 11.3 µM | IC50 ([7]; OVCAR-4): 4.15 µM | LD50 (lethal dose 50) ([7]; OVCAR-4): >100 µM | IC (TGI) ([7]; OVCAR-4): >100 µM | IC50 ([8]; A498): 4.56 µM | LD50 (lethal dose 50) ([8]; A498): >100 µM | IC (TGI) ([8]; A498): >100 µM | IC50 ([9]; MDA-MB-468): 3.9 µM | LD50 (lethal dose 50) ([9]; MDA-MB-468): >100 µM | IC (TGI) ([9]; MDA-MB-468): >100 µM | IC50 (renal cancer cell lines): 4.79 µM | IC50 (breast cancer cell lines): 3.79 µM | IC50 (melanoma cell lines): 4.58 µM | IC50 [10]: 6.02 µM | IC50 [11]: 5.23 µM | IC50 [12]: 4.99 µM | IC50 (Leukaemia cell lines): 2.89 µM | IC50 (colon cancer cell lines): 4.08 µM | IC50 (CNS cancer cell lines): 6.33 µM
